According to paper PMC4340402 (The Journal of Biological Chemistry, 2014):
Residue numbers refer to the chain shown, from its start.

Tests used:
Assay in all cases: two-electrode voltage clamp, Xenopus oocytes
X1-CζX4 = system: T1, X1-CζX4; assay type: cell-based, Homo sapiens; Rattus norvegicus; details: agonist; 3 s application; ND96 with Ba2+, -60 mV
T1 construct: gene P2RX1; hP2X1 with residues 227-231 replaced by the corresponding rP2X4 segment; Xenopus oocytes
Source text: two-electrode voltage clamp, Xenopus oocytes on X1-CζX4

hP2X1 receptor = biological target: T2, hP2X1 receptor (Homo sapiens, UniProt P51575); assay type: cell-based
T2 construct: gene P2RX1; full-length cDNA cloned from bladder; homotrimer; cRNA expressed in Xenopus laevis oocytes
T2 sequence (P51575 1-399): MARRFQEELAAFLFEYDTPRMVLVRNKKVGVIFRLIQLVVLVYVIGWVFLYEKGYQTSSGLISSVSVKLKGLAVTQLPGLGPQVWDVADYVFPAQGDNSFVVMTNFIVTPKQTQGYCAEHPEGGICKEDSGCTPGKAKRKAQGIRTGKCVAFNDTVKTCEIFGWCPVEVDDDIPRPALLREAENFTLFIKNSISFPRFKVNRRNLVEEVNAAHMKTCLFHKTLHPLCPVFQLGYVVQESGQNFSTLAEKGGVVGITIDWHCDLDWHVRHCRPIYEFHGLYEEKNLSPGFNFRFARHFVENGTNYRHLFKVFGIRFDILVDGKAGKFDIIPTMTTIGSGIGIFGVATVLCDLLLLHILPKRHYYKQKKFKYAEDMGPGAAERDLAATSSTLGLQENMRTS
Source text: two-electrode voltage clamp, Xenopus oocytes on hP2X1 receptor

X1-CδX4 = system: T3, X1-CδX4; assay type: cell-based, Homo sapiens; Rattus norvegicus; details: agonist; 3 s application; ND96 with Ba2+, -60 mV
T3 construct: gene P2RX1; hP2X1 with residues 216-220 replaced by the corresponding rP2X4 segment; Xenopus oocytes
Source text: two-electrode voltage clamp, Xenopus oocytes on X1-CδX4

X1-CϵX4 = system: T4, X1-CϵX4; assay type: cell-based, Homo sapiens; Rattus norvegicus; details: agonist; 3 s application; ND96 with Ba2+, -60 mV
T4 construct: gene P2RX1; hP2X1 with residues 221-226 replaced by the corresponding rP2X4 segment; Xenopus oocytes
Source text: two-electrode voltage clamp, Xenopus oocytes on X1-CϵX4

X1-AX4 = system: T5, X1-AX4; assay type: cell-based, Homo sapiens; Rattus norvegicus; details: ND96 with Ba2+, -60 mV
T5 construct: gene P2RX1; hP2X1 with residues 63-132 replaced by the corresponding rP2X4 segment (63-133); Xenopus oocytes
Source text: two-electrode voltage clamp, Xenopus oocytes on X1-AX4

X1-CαX4 = system: T6, X1-CαX4; assay type: cell-based, Homo sapiens; Rattus norvegicus; details: agonist; 3 s application; ND96 with Ba2+, -60 mV
T6 construct: gene P2RX1; text says 184-209) replaced by the corresponding rP2X4 segment; Xenopus oocytes
Source text: two-electrode voltage clamp, Xenopus oocytes on X1-CαX4

X1-CγX4 = system: T7, X1-CγX4; assay type: cell-based, Homo sapiens; Rattus norvegicus; details: agonist; 3 s application; ND96 with Ba2+, -60 mV
T7 construct: gene P2RX1; hP2X1 with residues 210-215 replaced by the corresponding rP2X4 segment; Xenopus oocytes
Source text: two-electrode voltage clamp, Xenopus oocytes on X1-CγX4

X1-CX4 = system: T8, X1-CX4; assay type: cell-based, Homo sapiens; Rattus norvegicus; details: ND96 with Ba2+, -60 mV
T8 construct: gene P2RX1; hP2X1 with residues 185-261 (hP2X1 numbering) replaced by the corresponding rP2X4 segment; Xenopus oocytes
Source text: two-electrode voltage clamp, Xenopus oocytes on X1-CX4

rP2X4 receptor [1] = biological target: T9, rP2X4 receptor (Rattus norvegicus, UniProt P51577, Y378A); assay type: cell-based
T9 construct: gene P2rx4; homotrimer; cRNA expressed in Xenopus laevis oocytes
T9 sequence (P51577 1-388 Y378A): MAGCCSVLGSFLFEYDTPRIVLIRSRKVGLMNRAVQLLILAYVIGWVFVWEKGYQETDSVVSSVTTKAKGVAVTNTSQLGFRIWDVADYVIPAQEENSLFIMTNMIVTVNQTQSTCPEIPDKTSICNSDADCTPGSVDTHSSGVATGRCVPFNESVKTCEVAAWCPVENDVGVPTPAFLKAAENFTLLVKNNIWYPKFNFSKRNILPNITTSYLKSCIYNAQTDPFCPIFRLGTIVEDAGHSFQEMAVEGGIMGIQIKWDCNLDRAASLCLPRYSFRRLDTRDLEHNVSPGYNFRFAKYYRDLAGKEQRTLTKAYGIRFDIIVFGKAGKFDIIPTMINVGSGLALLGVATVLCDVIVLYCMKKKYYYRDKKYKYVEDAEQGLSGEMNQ
Source text: two-electrode voltage clamp, Xenopus oocytes on rP2X4 receptor

X1-BX4 [2] = system: T10, X1-BX4; assay type: cell-based, Homo sapiens; Rattus norvegicus; details: agonist; 3 s application; ND96 with Ba2+, -60 mV
T10 construct: gene P2RX1; hP2X1 with residues 133-184 (hP2X1 numbering) replaced by the corresponding rP2X4 segment; Xenopus oocytes

X1-CβX4 = system: T11, X1-CβX4; assay type: cell-based, Homo sapiens; Rattus norvegicus; details: agonist; 3 s application; ND96 with Ba2+, -60 mV
T11 construct: gene P2RX1; hP2X1 with residues 232-261 replaced by the corresponding rP2X4 segment; Xenopus oocytes
Source text: two-electrode voltage clamp, Xenopus oocytes on X1-CβX4

X1-DX4 = system: T12, X1-DX4; assay type: cell-based, Homo sapiens; Rattus norvegicus; details: ND96 with Ba2+, -60 mV
T12 construct: gene P2RX1; hP2X1 with residues 262-330 (hP2X1 numbering) replaced by the corresponding rP2X4 segment; Xenopus oocytes
Source text: two-electrode voltage clamp, Xenopus oocytes on X1-DX4

X1-BX4 [3] = system: T10, X1-BX4; assay type: cell-based, Homo sapiens; Rattus norvegicus; details: ND96 with Ba2+, -60 mV
Source text: two-electrode voltage clamp, Xenopus oocytes on X1-BX4

rP2X4 receptor [4] = biological target: T13, rP2X4 receptor (Rattus norvegicus, UniProt P51577, D138K/H140K/S136K/T139R/Y378A); assay type: cell-based; details: read-out: % of control at 1 μM
T13 construct: gene P2rx4; homotrimer; cRNA expressed in Xenopus laevis oocytes
T13 sequence (P51577 1-388 S136K/D138K/T139R/H140K/Y378A): T9 sequence (P51577 1-388 Y378A) with S136K, D138K, T139R, H140K

X1-BX4 [5] = system: T10, X1-BX4; assay type: cell-based, Homo sapiens; Rattus norvegicus; details: antagonist at EC90 of ATP; 5 min preincubation; ND96 with Ba2+, -60 mV
[6] = read-out: ATP / pEC50 (converted)
[7] = antagonist at EC90 of ATP, 5 min preincubation

## Nc1ncnc2c1ncn2[C@@H]1O[C@H](COP(=O)(O)OP(=O)(O)OP(=O)(O)O)[C@@H](O)[C@H]1O [ATP]
X1-CζX4
  ATP / pEC50: 5.54 ± 0.06
hP2X1 receptor; [6]
  EC50: 0.49 µM
X1-CδX4
  ATP / pEC50: 5.21 ± 0.04
X1-CϵX4
  ATP / pEC50: 5.68 ± 0.06
X1-AX4; agonist, 3 s application
  ATP / pEC50: 4.43 ± 0.08
X1-CαX4
  ATP / pEC50: 5.34 ± 0.05
X1-CγX4
  ATP / pEC50: 5.71 ± 0.06
X1-CX4; agonist, 3 s application
  ATP / pEC50: 6.17 ± 0.13
rP2X4 receptor [1]; [6]
  EC50: 4.07 µM
X1-BX4 [2]
  pEC50: 3.6 ± 0.1
X1-CβX4
  ATP / pEC50: 5.30 ± 0.06
X1-DX4; agonist, 3 s application
  ATP / pEC50: 5.08 ± 0.04
X1-BX4 [3]; agonist, 3 s application
  ATP / pEC50: 4.28 ± 0.04

## O=C(Nc1cc(C(=O)Nc2ccc(S(=O)(=O)O)cc2S(=O)(=O)O)cc(C(=O)Nc2ccc(S(=O)(=O)O)cc2S(=O)(=O)O)c1)Nc1cc(C(=O)Nc2ccc(S(=O)(=O)O)cc2S(=O)(=O)O)cc(C(=O)Nc2ccc(S(=O)(=O)O)cc2S(=O)(=O)O)c1 [NF449, 4,4′,4″,4‴-(carbonylbis(imino-5,1,3-benzenetriylbis(carbonylimino)))tetrakisbenzene-1,3-disulfonic acid]
rP2X4 receptor [4]
  remaining activity at 1 µM: 104 ± 5.3%
X1-BX4 [5]
  pIC50: 9.28 ± 0.05
rP2X4 receptor [1]
  IC50: > 1 µM

## Cc1nc(N=Nc2ccc(S(=O)(=O)O)cc2S(=O)(=O)O)c(COP(=O)(O)O)c(C=O)c1O [PPADS, pyridoxal-phosphate-6-azophenyl-2,4-disulfonate]
hP2X1 receptor; read-out: PPADS / pIC50 (converted)
  IC50: 1.58 µM
X1-AX4; [7]
  PPADS / pIC50: 6.18 ± 0.02
X1-CX4; [7]
  PPADS / pIC50: 5.47 ± 0.12
rP2X4 receptor [1]
  IC50: > 100 µM
X1-DX4; [7]
  PPADS / pIC50: 6.95 ± 0.07
X1-BX4 [3]; [7]
  PPADS / pIC50: 5.24 ± 0.12

## Cc1ccc(C(=O)Nc2ccc(S(=O)(=O)O)c3cc(S(=O)(=O)O)cc(S(=O)(=O)O)c23)cc1NC(=O)c1cccc(NC(=O)Nc2cccc(C(=O)Nc3cc(C(=O)Nc4ccc(S(=O)(=O)O)c5cc(S(=O)(=O)O)cc(S(=O)(=O)O)c45)ccc3C)c2)c1 [Suramin]
rP2X4 receptor [1]
  IC50: > 100 µM
